Measured values reported in ChEMBL document CHEMBL1127315, “Substituted O6-benzylguanine derivatives and their inactivation of human O6-alkylguanine-DNA alkyltransferase” (J Med Chem, 1994).
The source made the active and inactive calls. The rule behind the calls is not given here.

Tests used:
[1] = target: T1, Methylated-DNA--protein-cysteine methyltransferase (Homo sapiens) (UniProt P16455); details: HT-29
T1 sequence (whole entry): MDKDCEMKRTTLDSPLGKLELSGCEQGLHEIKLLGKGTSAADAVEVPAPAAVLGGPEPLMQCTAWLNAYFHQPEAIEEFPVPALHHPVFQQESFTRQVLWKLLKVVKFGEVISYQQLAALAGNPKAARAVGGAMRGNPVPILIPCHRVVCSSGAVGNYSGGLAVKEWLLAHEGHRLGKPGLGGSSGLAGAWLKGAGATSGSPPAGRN

[2] = target: T1, Methylated-DNA--protein-cysteine methyltransferase (Homo sapiens); details: HT-29; remark: listed apart in the source
[3] = target: T1, Methylated-DNA--protein-cysteine methyltransferase (Homo sapiens); assay: Tested for the effective dose required to produce 50 percent inactivation of O6-alkylguanine-DNA alkyltransferase in HT-29 cell free extract; Inactive

| Structure (SMILES) | ED50 [1] [µM] | ED50 [2] [µM] | ED50 [3] |
| --- | --- | --- | --- |
| C[C@]12CC[C@H]3[C@@H](CCC4CC(=O)CC[C@@]43C)[C@@H]1CC[C@@H]2OC(=O)Cn1cnc2c(OCc3ccccc3)nc(N)nc21 (stereo not given in full) | 4 | 0.5 |  |
| CC12CCC(=O)C=C1CCC1C2CCC2(C)C(OC(=O)Cn3cnc4c(OCc5ccccc5)nc(N)nc43)CCC12 (stereo not given) | 5 | 0.5 |  |
| Nc1nc(Oc2ccccc2)c2[nH]cnc2n1 |  |  | inactive |
